Laboratory results reported in patent US20250136559A1, “SMO MODULATOR COMPOUNDS” (OMASS THERAPEUTICS LIMITED, priority 2022, published 2025).

Key:
Format in all cases: cell-based
human SMO W535L = target: T1, human SMO W535L (Homo sapiens, UniProt Q99835, W535L); experiment: Human assay: Gli1 qPCR in MEF SMO-/- cells BacMam-transduced with hSMO W535L variant; conditions: mSHh-treated, 24 hours; for IC50: Gli1 inhibition by qPCR, read-out: Human W535L pIC50 (converted); for Human W535L % Inh: percentage Gli1 inhibition
T1 construct: expressed in transfected cells; host or cells: SMO knock-out mouse embryonic fibroblasts (MEF SMO-/-), BacMam transduction
Procedure: (§1) Cell culture. All materials were purchased from Sigma-Aldrich, unless otherwise stated. SMO knock-out mouse embryonic fibroblasts (MEF^SMO−/−) were maintained in Dulbecco's modified Eagle's medium (DMEM)/high-glucose medium supplemented with 10% foetal bovine serum (FBS, Invitrogen), 50 U/mL penicillin and 5 mg/mL streptomycin (supplied as a mixture), 0.1 mMMEM Non-Essential Amino Acids (supplied as 100× solution, ThermoFisher) and 1 mM sodium pyruvate at 37° C. in a humidified 95% air/5% CO2 atmosphere.
(§2) BacMam transduction and compound treatment. MEF^SMO−/− cells were transduced with BacMam virus (MOI 1:10 in the presence of 4.2 mM valproic acid) containing either the hSMO WT or desired receptor variant sequence. Transduced cells were seeded at 6000 cells per well in a Poly-D-Lysine coated 384-well plate (Greiner) before the spent culture medium was removed on the following day and replaced with assay medium (OptiMEM (Gibco) supplemented with 50 U/mL penicillin and 5 mg/mL streptomycin (supplied as a mixture), 0.1 mMMEM Non-Essential Amino Acids (supplied as 100× solution, ThermoFisher), 1 mM sodium pyruvate and 10 mM HEPES) containing test compounds at 2.5× final assay concentrations. After 1 hour incubation, cells were treated with assay medium containing mSHh prepared at 2.5× of final assay concentrations specified in the text and incubated for a further 24 hours at 37° C. in a humidified 95% air/5% ° C.2 atmosphere prior to qPCR analysis.
(§3) Cell lysis and one-step qPCR. The Cells-to-CT™ 1-Step TaqMan® Kit was used in conjunction with TaqMan primer-probe assays for the detection of Gill (FAM, Mm00494654_m1) and Gusb (VIC, Mm01197698_m1) genes (all purchased from Life Technologies). Following 24 hours cell treatment, spent medium was removed and cells were washed with PBS before the application of lysis and stop solution as per manufacturer's instructions. The qPCR reactions were run in a 384-well PCR plate using master mix prepared according to manufacturer's instructions and cell lysate samples from treatment wells. Real-time PCR amplification was detected using the Bio-Rad CFX384 Touch PCR system. Four experimental replicates (two cell replicates and two qPCR replicates) were performed for each compound concentration tested. Real-time data were analysed using the CFX Maestro software (Bio-Rad) and obtained expression values were converted to percentage Gill inhibition by normalising to the average Gill expression of mSHh-treated control samples

human SMO D473H = target: T2, human SMO D473H (Homo sapiens, UniProt Q99835, D473H); experiment: Human assay: Gli1 qPCR in MEF SMO-/- cells BacMam-transduced with hSMO D473H variant; conditions: mSHh-treated, 24 hours; for IC50: Gli1 inhibition by qPCR, read-out: Human D473H pIC50 (converted); for Human D473H % Inh: percentage Gli1 inhibition
T2 construct: expressed in transfected cells; host or cells: SMO knock-out mouse embryonic fibroblasts (MEF SMO-/-), BacMam transduction
Procedure: Cell culture. All materials were purchased from Sigma-Aldrich, unless otherwise stated.
as §2, with “concentrations.” for “concentrations. After 1 hour incubation, cells were treated with assay medium containing mSHh prepared at 2.5× of final assay concentrations specified in the text and incubated for a further 24 hours at 37° C. in a humidified 95% air/5% ° C.2 atmosphere prior to qPCR analysis.”
as §3

mouse SMO^D473H = target: T3, mouse SMO^D473H (Mus musculus, UniProt P56726, D477H); experiment: Mouse assay: Gli1 qPCR in MEF cells stably expressing mouse SMO D473H; conditions: mSHh-treated, 24 hours; for IC50: Gli1 inhibition by qPCR, read-out: Mouse D473H pIC50 (converted); for Mouse D473H % Inh: percentage Gli1 inhibition
T3 construct: expressed in transfected cells
How it was run: (§4)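 MEFs stably expressing the SMO variant pre-treated with compound 1 h, then stimulated with mSHh and incubated 24 h at 37 °C. Gli1 mRNA quantified by one-step TaqMan qPCR with Gusb reference, four replicates per concentration; expressed as % Gli1 inhibition relative to mSHh-treated controls.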

mouse SMO^W535L = target: T4, mouse SMO^W535L (Mus musculus, UniProt P56726, W539L); experiment: Mouse assay: Gli1 qPCR in MEF cells stably expressing mouse SMO W535L; conditions: mSHh-treated, 24 hours; for IC50: Gli1 inhibition by qPCR, read-out: Mouse W535L pIC50 (converted); for Mouse W535L % Inh: percentage Gli1 inhibition
T4 construct: expressed in transfected cells
How it was run: as §4

mouse SMO^WT = target: T5, mouse SMO^WT (Mus musculus, UniProt P56726); experiment: Mouse assay: Gli1 qPCR in MEF cells stably expressing mouse SMO WT; conditions: mSHh-treated, 24 hours; for IC50: Gli1 inhibition by qPCR, read-out: Mouse WT pIC50 (converted); for Mouse WT % Inh: percentage Gli1 inhibition
T5 construct: expressed in transfected cells
How it was run: as §4

hSMO WT = target: T6, hSMO WT (Homo sapiens, UniProt Q99835); experiment: Human assay: Gli1 qPCR in MEF SMO-/- cells BacMam-transduced with hSMO WT; conditions: mSHh-treated, 24 hours; for IC50: Gli1 inhibition by qPCR, read-out: Human WT pIC50 (converted); for Human WT % Inh: percentage Gli1 inhibition
T6 construct: expressed in transfected cells; host or cells: SMO knock-out mouse embryonic fibroblasts (MEF SMO-/-), BacMam transduction
Procedure: as §1, §2, §3

T6 sequence (Q99835 28-787): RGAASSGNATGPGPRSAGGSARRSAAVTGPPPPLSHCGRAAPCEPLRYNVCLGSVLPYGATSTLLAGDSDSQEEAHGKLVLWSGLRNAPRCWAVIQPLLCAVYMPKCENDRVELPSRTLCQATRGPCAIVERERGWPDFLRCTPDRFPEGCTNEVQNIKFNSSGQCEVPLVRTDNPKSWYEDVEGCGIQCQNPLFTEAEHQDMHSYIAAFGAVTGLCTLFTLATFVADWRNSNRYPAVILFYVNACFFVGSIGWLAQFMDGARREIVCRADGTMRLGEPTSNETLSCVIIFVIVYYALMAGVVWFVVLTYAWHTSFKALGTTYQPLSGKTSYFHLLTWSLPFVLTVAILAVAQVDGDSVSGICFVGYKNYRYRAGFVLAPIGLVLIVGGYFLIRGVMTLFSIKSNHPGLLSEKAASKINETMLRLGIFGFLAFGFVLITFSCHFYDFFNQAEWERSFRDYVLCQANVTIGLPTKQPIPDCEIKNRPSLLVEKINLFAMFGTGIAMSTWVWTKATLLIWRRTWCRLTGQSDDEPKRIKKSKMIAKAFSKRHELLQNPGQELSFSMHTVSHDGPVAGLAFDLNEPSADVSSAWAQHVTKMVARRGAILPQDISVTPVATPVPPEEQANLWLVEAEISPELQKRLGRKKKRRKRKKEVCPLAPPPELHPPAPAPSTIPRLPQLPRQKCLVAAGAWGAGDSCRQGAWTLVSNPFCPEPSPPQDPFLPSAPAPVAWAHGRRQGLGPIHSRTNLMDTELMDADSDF
T2 sequence (Q99835 28-787 D473H): as the sequence (Q99835 28-787) above, with D446H counted along it
T4 sequence (P56726 33-793 W539L): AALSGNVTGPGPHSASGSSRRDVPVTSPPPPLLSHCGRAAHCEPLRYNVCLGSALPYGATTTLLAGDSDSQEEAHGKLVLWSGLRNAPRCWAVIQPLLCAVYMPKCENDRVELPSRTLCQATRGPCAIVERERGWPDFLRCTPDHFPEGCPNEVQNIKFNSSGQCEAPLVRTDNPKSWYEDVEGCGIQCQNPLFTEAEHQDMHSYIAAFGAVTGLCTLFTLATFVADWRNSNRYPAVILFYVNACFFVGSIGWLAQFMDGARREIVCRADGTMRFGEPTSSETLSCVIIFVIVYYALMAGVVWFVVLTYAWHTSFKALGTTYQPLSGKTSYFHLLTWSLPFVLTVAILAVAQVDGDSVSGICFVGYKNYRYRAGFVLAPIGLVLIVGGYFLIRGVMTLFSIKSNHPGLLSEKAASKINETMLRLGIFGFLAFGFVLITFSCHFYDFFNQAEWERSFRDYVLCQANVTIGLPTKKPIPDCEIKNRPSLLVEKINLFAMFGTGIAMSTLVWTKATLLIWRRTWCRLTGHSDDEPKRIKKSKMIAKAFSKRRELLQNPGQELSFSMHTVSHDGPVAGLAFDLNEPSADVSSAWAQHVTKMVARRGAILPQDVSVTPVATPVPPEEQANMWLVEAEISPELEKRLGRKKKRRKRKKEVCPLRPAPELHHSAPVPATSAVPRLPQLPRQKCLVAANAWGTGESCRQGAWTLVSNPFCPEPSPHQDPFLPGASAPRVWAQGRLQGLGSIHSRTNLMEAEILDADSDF
T1 sequence (Q99835 28-787 W535L): as the sequence (Q99835 28-787) above, with W508L counted along it
T5 sequence (P56726 33-793): as the sequence (P56726 33-793 W539L) above, with L507W counted along it
T3 sequence (P56726 33-793 D477H): as the sequence (P56726 33-793 W539L) above, with D445H, L507W counted along it

| Compound | IC50 (human SMO W535L) | Human W535L % Inh (human SMO W535L) | IC50 (human SMO D473H) | Human D473H % Inh (human SMO D473H) | IC50 (mouse SMO^D473H) | Mouse D473H % Inh (mouse SMO^D473H) | IC50 (mouse SMO^W535L) | Mouse W535L % Inh (mouse SMO^W535L) | IC50 (mouse SMO^WT) | Mouse WT % Inh (mouse SMO^WT) | IC50 (hSMO WT) | Human WT % Inh (hSMO WT) |
| --- | --- | --- | --- | --- | --- | --- | --- | --- | --- | --- | --- | --- |
| CS(=O)(=O)c1ccc(C(=O)Nc2ccc(Cl)c(-c3ccccn3)c2)c(Cl)c1 [Vismodegib, reference compound] |  | 92.6% |  | 45.4% |  |  |  |  |  |  |  | 100.1% |
| CC1CN(Cc2cccc(C(=O)Nc3ccc(-c4nc(C5CC5)n[nH]4)cc3)c2)CCS1(=O)=O (stereo not shown) [Example 1-2, N-[4-(3-Cyclopropyl-1H-1,2,4-triazol-5-yl)phenyl]-3-[(2-methyl-1,1-dioxo-1,4-thiazinan-4-yl)methyl]benzamide] | 20 nM | 78.2% | 200 nM | 85% | 126 nM | 95.6% | 200 nM | 63.3% | 15.8 nM | 97.3% |  |  |
| O=C(Nc1ccc(-c2nc(C3CC3)n[nH]2)cc1)c1cc(F)cc(CN2CCS(=O)(=O)CC2)c1 [Example 2-2, N-[4-(5-Cyclopropyl-1H-1,2,4-triazol-3-yl)phenyl]-3-[(1,1-dioxo-1,4-thiazinan-4-yl)methyl]-5-fluorobenzamide] | 7.94 nM | 79.1% | 794 nM | 73.6% | 126 nM | 91.3% | 126 nM | 67.2% | 10 nM | 95.8% |  |  |
| O=C(Nc1ccc(-c2nc(C3CC3)n[nH]2)cc1)c1cc(Cl)cc(CN2CCS(=O)(=O)CC2)c1 [Example 2-4, 3-Chloro-N-[4-(5-cyclopropyl-1H-1,2,4-triazol-3-yl)phenyl]-5-[(1,1-dioxo-1,4-thiazinan-4-yl)methyl]benzamide] | 5.01 nM | 87.8% | 631 nM | 76.5% | 39.8 nM | 95.4% | 39.8 nM | 60.2% | 5.01 nM | 95.4% |  |  |

The remaining lines, values ahead:

| IC50 (human SMO W535L) | Human W535L % Inh (human SMO W535L) | IC50 (human SMO D473H) | Human D473H % Inh (human SMO D473H) | IC50 (mouse SMO^D473H) | Mouse D473H % Inh (mouse SMO^D473H) | IC50 (mouse SMO^W535L) | Mouse W535L % Inh (mouse SMO^W535L) | IC50 (mouse SMO^WT) | Mouse WT % Inh (mouse SMO^WT) | IC50 (hSMO WT) | Human WT % Inh (hSMO WT) | Compound |
| --- | --- | --- | --- | --- | --- | --- | --- | --- | --- | --- | --- | --- |
| 12.6 nM | 95.6% | 25.1 nM | 103.2% | 2 nM | 97.4% | 10 nM | 71.9% | 0.2 nM | 97.1% | 0.316 nM | 93.6% | Cc1oc(-c2ccc(NC(=O)c3ccc(F)c(CN4CCS(=O)(=O)CC4)c3)cc2)nc1C1CC1 [Example 4-3, N-[4-(4-Cyclopropyl-5-methyl-1,3-oxazol-2-yl)phenyl]-3-[(1,1-dioxo-1,4-thiazinan-4-yl)methyl]-4-fluorobenzamide] |
| 100 nM | 88.4% | 1260 nM | 77.2% | 158 nM | 89.9% | 158 nM | 61.9% | 15.8 nM | 96.6% | 31.6 nM | 85.9% | O=C(Nc1ccc(-c2nc(C3CC3)n[nH]2)cc1)c1cccc(CN2CCS(=O)(=O)CC2)c1 [Example 3-3, N-[4-(3-Cyclopropyl-1H-1,2,4-triazol-5-yl)phenyl]-3-[(1,1-dioxo-1,4-thiazinan-4-yl)methyl]benzamide] |
| 6.31 nM | 92.5% | 63.1 nM | 111.9% | 6.31 nM | 97.6% | 5.01 nM | 58.6% | 0.794 nM | 97.0% | 0.794 nM | 99.2% | Cc1c(-c2ccc(NC(=O)c3ccc(Cl)c(CN4CCS(=O)(=O)CC4)c3)cc2)nn(C)c1C1CC1 [Example 4-26, 4-Chloro-N-[4-(5-cyclopropyl-1,4-dimethylpyrazol-3-yl)phenyl]-3-[(1,1-dioxo-1,4-thiazinan-4-yl)methyl]benzamide] |
| 39.8 nM | 85.9% | 794 nM | 107.7% | 126 nM | 97.0% | 251 nM | 66.4% | 7.94 nM | 97.3% |  |  | Cn1nc(-c2ccc(NC(=O)c3cccc(CN4CCS(=O)(=O)CC4)c3)cn2)cc1C1CC1 [Example 5-4, N-[6-(5-Cyclopropyl-1-methylpyrazol-3-yl)pyridin-3-yl]-3-[(1,1-dioxo-1,4-thiazinan-4-yl)methyl]benzamide] |
|  |  |  |  | 31.6 nM | 98.4% | 10 nM | 51.6% | 2.51 nM | 99.1% |  |  | O=C(Nc1ccc(-c2cc(C3CC3)n[nH]2)cc1)c1ccc(Cl)c(CN2CCS(=O)(=O)CC2)c1 [Example 4-20, 4-chloro-N-[4-(5-cyclopropyl-1H-pyrazol-3-yl)phenyl]-3-[(1,1-dioxo-1,4-thiazinan-4-yl)methyl]benzamide] |
|  |  |  |  | 50.1 nM | 98.5% | 158 nM | 77.7% | 6.31 nM | 99.5% |  |  | Cl.Cn1nc(-c2ccc(NC(=O)c3cccc(CN4CCS(=O)(=O)CC4)c3)cc2)nc1C1CC1 [Example 4-27, N-[4-(5-cyclopropyl-1-methyl-1,2,4-triazol-3-yl)phenyl]-3-[(1,1-dioxo-1,4-thiazinan-4-yl)methyl]benzamide] |
|  |  |  |  | 251 nM | 95.2% | 631 nM | 50.9% | 39.8 nM | 97.3% |  |  | O=C(Nc1ccc(-c2nc(-c3ccc(COc4ccccc4F)cc3)n[nH]2)cc1)c1cccc(CN2CCS(=O)(=O)CC2)c1 [Example 3-14, 3-[(1,1-Dioxo-1,4-thiazinan-4-yl)methy]-N-[4-[3-[4-[(2-fluorophenoxy)methyl]phenyl]-1H-1,2,4-triazol-5-yl]phenyl]benzamide] |
|  |  |  |  | 200 nM | 98.4% | 79.4 nM | 51.7% | 31.6 nM | 98.4% |  |  | O=C(Nc1ccc(-c2nc(C3CCCCC3)n[nH]2)cc1)c1cccc(CN2CCS(=O)(=O)CC2)c1 [Example 3-6, N-[4-(3-Cyclohexyl-1H-1,2,4-triazol-5-yl)phenyl]-3-[(1,1-dioxo-1,4-thiazinan-4-yl)methyl]benzamide] |
